IC50 data for three molecules are collected here from patent publication US20260085053A1, “BENZOFURAN DERIVATIVES AS SIK INHIBITORS AND THE USE THEREOF” (BEONE MEDICINES I GMBH, priority 2023, published 2026).

Experiment [1] addresses T1, SIK2 kinase (full length, Thermo Fisher) (Homo sapiens, UniProt Q9H0K1).
T1 construct: SIK2 kinase (full length, Thermo Fisher); purchased Thermo Fisher
Briefly: Biochemical activities determination for SIK2 protein (TR-FRET). Conditions: 80 uM ATP, 0.5 μM substrate. A digest of the protocol:
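Full-length SIK2 preincubated 60 min with 0–10 μM compound, then reacted 180 min at room temperature with 80 uM ATP and 0.5 μM biotinylated substrate (pH 7.5 Tris/MgCl2 buffer). Phosphorylation detected by TR-FRET (665/620 nm ratio, cryptate antibody/streptavidin-XL665) after overnight incubation; IC50 from four-parameter logistic fit.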

In experiment [2] the target is T2, SIK1 kinase (aa1-303, Thermo Fisher) (Homo sapiens, UniProt P57059).
T2 construct: SIK1 kinase (aa1-303, Thermo Fisher); purchased Thermo Fisher
Briefly: Biochemical activities determination for SIK1 protein (TR-FRET). The conditions noted are these: 110 uM ATP, 0.5 μM STK1 substrate. Summed up:
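TR-FRET kinase assay with SIK1 (aa1-303), 110 uM ATP, 0.5 μM STK1 substrate and 0-10 μM compound in Tris pH 7.5 with MgCl2, EGTA, DTT, Triton X-100. Enzyme preincubated with compound 60 min, reaction 180 min at room temperature; 665/620 nm ratio after overnight detection; IC50 from four-parameter logistic fit.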
(Time-resolved FRET reads energy transfer from a long-lived donor to a nearby acceptor.)

Experiment [3] deals with T3, SIK3 kinase (aa59-365, Thermo Fisher) (Homo sapiens, UniProt Q9Y2K2).
T3 construct: SIK3 kinase (aa59-365, Thermo Fisher); purchased Thermo Fisher
Briefly: Biochemical activities determination for SIK3 protein (TR-FRET). Conditions: 125 uM ATP, 0.5 μM STK1 substrate. A digest of the protocol: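 SIK3 (aa59-365) was preincubated with compound (0-10 μM) for 60 min at room temperature in Tris buffer pH 7.5. The reaction was then started with 125 uM ATP and 0.5 μM STK1 substrate and run 180 min at room temperature. Phospho-substrate was detected by HTRF (665/620 nm ratio), and IC50 came from a four-parameter logistic fit.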

The IC50 is the concentration needed to halve the response being measured. A higher IC50 goes with weaker potency.

SMILES strings stand for the structures.

T1 sequence (Q9H0K1 whole entry): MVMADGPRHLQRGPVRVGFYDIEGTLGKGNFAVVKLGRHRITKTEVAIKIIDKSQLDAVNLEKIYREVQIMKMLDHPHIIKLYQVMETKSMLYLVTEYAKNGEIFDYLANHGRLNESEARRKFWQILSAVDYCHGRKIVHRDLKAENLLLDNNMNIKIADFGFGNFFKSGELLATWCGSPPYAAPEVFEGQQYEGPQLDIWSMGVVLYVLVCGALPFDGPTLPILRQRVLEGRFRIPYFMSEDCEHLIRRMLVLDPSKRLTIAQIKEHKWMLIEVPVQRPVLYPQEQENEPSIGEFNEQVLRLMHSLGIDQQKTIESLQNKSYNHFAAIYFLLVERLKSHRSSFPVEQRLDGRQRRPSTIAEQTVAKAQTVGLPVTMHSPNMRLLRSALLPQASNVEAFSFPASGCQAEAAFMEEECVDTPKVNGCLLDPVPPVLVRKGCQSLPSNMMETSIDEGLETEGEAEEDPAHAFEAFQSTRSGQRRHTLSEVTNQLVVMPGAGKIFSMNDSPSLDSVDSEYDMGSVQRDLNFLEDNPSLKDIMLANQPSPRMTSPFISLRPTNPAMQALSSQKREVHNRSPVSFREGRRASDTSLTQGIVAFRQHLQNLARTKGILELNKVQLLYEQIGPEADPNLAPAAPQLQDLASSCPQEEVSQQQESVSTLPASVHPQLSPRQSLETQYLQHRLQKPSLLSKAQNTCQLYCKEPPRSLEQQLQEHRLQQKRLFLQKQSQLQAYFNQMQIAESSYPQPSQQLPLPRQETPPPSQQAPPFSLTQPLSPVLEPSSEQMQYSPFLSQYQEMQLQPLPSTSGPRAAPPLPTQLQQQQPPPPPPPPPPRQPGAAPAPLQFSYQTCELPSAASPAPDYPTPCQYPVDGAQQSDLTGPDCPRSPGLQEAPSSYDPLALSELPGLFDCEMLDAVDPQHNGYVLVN
T2 sequence (P57059 1-303): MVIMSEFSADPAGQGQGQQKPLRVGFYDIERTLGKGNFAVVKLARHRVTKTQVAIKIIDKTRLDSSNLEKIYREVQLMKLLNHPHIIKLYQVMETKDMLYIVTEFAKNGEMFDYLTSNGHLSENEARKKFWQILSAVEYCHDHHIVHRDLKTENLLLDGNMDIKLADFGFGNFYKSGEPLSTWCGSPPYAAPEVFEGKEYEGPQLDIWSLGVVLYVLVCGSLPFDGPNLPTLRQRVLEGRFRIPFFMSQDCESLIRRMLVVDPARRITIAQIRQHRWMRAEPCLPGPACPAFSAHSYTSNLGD
T3 sequence (Q9Y2K2 59-365): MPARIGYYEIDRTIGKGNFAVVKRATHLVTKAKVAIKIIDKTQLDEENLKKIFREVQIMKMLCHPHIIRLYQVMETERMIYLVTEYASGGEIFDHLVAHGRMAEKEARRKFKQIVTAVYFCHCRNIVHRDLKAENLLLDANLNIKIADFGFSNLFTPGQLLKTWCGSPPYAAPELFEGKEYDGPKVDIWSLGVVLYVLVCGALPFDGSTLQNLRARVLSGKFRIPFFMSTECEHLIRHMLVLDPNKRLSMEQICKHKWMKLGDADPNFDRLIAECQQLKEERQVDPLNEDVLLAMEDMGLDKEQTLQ

Turning to `COc1cc(-c2coc3cc(-c4cnn(C)c4)c(F)cc23)cc2c1C(=O)N(CC(F)(F)F)CC2` [Example 12, 6-(5-fluoro-6-(1-methyl-1H-pyrazol-4-yl)benzofuran-3-yl)-8-methoxy-2-(2,2,2-trifluoroethyl)-3,4-dihydroisoquinolin-1 (2H)-one], the results for the half-maximal inhibitory concentration (IC50) in experiment [1], in experiment [2] and in experiment [3] were 59 nM, 2280 nM and 186 nM, respectively.

In the case of `Cn1cc(-c2ccc3c(-c4cc5c(c(OC(F)F)c4)C(=O)N(CC(F)(F)F)CC5)coc3c2)cn1` [Example 13, 8-(difluoromethoxy)-6-(6-(1-methyl-1H-pyrazol-4-yl)benzofuran-3-yl)-2-(2,2,2-trifluoroethyl)-3,4-dihydroisoquinolin-1 (2H)-one], the figures for the IC50 in experiment [1], in experiment [2] and in experiment [3] were 25 nM, 647 nM and 54 nM, respectively.

Turning to `Cc1ccc(-c2ccc3c(-c4cc5c(c(OC(F)F)c4)C(=O)N(CC(F)(F)F)CC5)coc3c2)nn1` [Example 14, 8-(difluoromethoxy)-6-(6-(6-methylpyridazin-3-yl)benzofuran-3-yl)-2-(2,2,2-trifluoroethyl)-3,4-dihydroisoquinolin-1 (2H)-one], the IC50 in experiment [1] is 310 nM; in experiment [2], over 10000 nM; in experiment [3], 329 nM.
